Experimental data: patent US5707615A, “Method of treating HIV infections with anti-viral formulations” (Merrell Pharmaceuticals Inc., priority 1997, dated 1998)

Experiments:
HIV-I (GB8) = assay: Pretreatment of JM cells and block of HIV-I (GB8) infection (Example IV); conditions: pretreated overnight at 20 μg/mL; for MEAN SYNCYTIA: 2 days; for P24 % / SYNCYTIA %: % of control, 2880 min
Method: JM cells were pretreated overnight at 37° C. with different compounds at 20 μg/mL or left untreated. The cells were washed 3 times in RPMI medium and then infected with HIV-I (GB8) for 2 hours at room temperature. The cells were again washed 3 times in RPMI medium and resuspended in fresh medium prior to being distributed into duplicate wells and incubated at 37° C. After 2 days syncytia were scored and the cell free supernatant fluid harvested and assayed for P24 viral core antigen using the Coulter™ HIV antigen assay.

GB8 virus in JM cells = assay: Virus infection of JM cells with GB8 in the presence of test compounds: syncytia and P24 (Example II); conditions: for SYNCYTIA % / P24 %: % of control; for SYNCYTIA %: 2880 min; for P24 %: 5760 min
Method: Virus infection of JM cells was carried out in the presence of different concentrations of test compounds. JM cells (1×10^5) and 50-100 syncytial forming units of virus (GB8) were added to duplicate wells of a tissue culture plate containing 1 mL volumes of growth medium with or without drug. The plate was incubated for 2 days at 37° C. and then scored for the presence of syncytia. At the same time the cells were washed and the growth medium replaced. After a further two days incubation, the cell free supernatant fluids were harvested and assayed for levels of P24 viral core antigen using the Coulter™ HIV Antigen assay.

HIV strain RF = assay: Ability to prevent virus-induced cell death using MT4 cells and strain RF (Example III); assay type: cell-based; conditions: MT4 cells, 7 days, MTT, 10080 min
Method: (§1) Various oligomers were dissolved in RPMI and were then assayed for anti-HIV activity by making doubling dilutions of the solutions across a 96 well microtitre plate. To each well were then added 5×10^4 cells and 100 TCID50 of virus and the plates incubated at 37° C. for 7 days. MTT was added to each well and the plates incubated for a further 2 hours. The blue formazan crystals were dissolved using acidic isopropanol, and the absorbance measured at 540 nm.

MT4 cells = assay: Toxicity to MT4 cells (TD50, Table IV, MTT); assay type: cell-based; conditions: MT4 cells, 7 days, MTT
Method: as §1

HIV-I, GB8 = assay: Ability to prevent syncytia formation and expression of P24 viral core antigen using JM cells and GB8 virus strain (Example I); assay type: cell-based; conditions: for P24 % CONTROL: 4320 min; for SYNCYTIA: after 3 days
Method: The virus was first incubated with an oligomer for 15 minutes and then the cells were added. After 2 hours adsorption, the virus innoculum was removed and the cells were washed three times to remove traces of input virus. Antiviral activity was determined after 3 days incubation by plotting the mean number of syncytia found in quadruple cultures against log10 concentration of anionic polymer or of other test compounds. The potency of an oligomer was also measured by assaying viral core antigen (P24 test-Abbott) in the supernatant fluid. Heparin, dextran sulfate, rs CD4, ATZ and/or ddC data, when included in any of the following Tables, are provided as positive controls.

poly[imino(2,5-disulfo-1,4-phenylene)iminocarbonyl], alpha-{[(4-methylphenyl)amino]carbonyl}-omega-[(4-methylphenyl)amino]- [Example 3A]
P24 (HIV-I (GB8)): 26880 pg/mL
MEAN SYNCYTIA (HIV-I (GB8)): 153
P24 % (HIV-I (GB8)): 95%
SYNCYTIA % (HIV-I (GB8)): 129%
SYNCYTIA (2 DAYS) MEAN (GB8 virus in JM cells; Table II, 0.6 μg/mL): 51
SYNCYTIA % (GB8 virus in JM cells; Table II, 0.6 μg/mL): 120%
P24 (GB8 virus in JM cells; Table II, 1.25 μg/mL): 4.3 × 10^5 units/mL
SYNCYTIA (2 DAYS) MEAN (GB8 virus in JM cells; Table II, 1.25 μg/mL): 20
SYNCYTIA % (GB8 virus in JM cells; Table II, 1.25 μg/mL): 48%
P24 % (GB8 virus in JM cells; Table II, 1.25 μg/mL): 100%
P24 (GB8 virus in JM cells; Table II, 2.5 μg/mL): 2.5 × 10^5 units/mL
SYNCYTIA (2 DAYS) MEAN (GB8 virus in JM cells; Table II, 2.5 μg/mL): 38
SYNCYTIA % (GB8 virus in JM cells; Table II, 2.5 μg/mL): 90%
P24 % (GB8 virus in JM cells; Table II, 2.5 μg/mL): 69%
P24 (GB8 virus in JM cells; Table II, 5 μg/mL): 3.6 × 10^5 units/mL
SYNCYTIA (2 DAYS) MEAN (GB8 virus in JM cells; Table II, 5 μg/mL): 15
SYNCYTIA % (GB8 virus in JM cells; Table II, 5 μg/mL): 36%
P24 % (GB8 virus in JM cells; Table II, 5 μg/mL): 100%
P24 (GB8 virus in JM cells; Table II, 10 μg/mL): 4.1 × 10^4 units/mL
SYNCYTIA (2 DAYS) MEAN (GB8 virus in JM cells; Table II, 10 μg/mL): 3
SYNCYTIA % (GB8 virus in JM cells; Table II, 10 μg/mL): 7%
P24 % (GB8 virus in JM cells; Table II, 10 μg/mL): 11%
SYNCYTIA (2 DAYS) MEAN (GB8 virus in JM cells; Table II, 20 μg/mL): 5
SYNCYTIA % (GB8 virus in JM cells; Table II, 20 μg/mL): 12%
ED50 (HIV strain RF): > 10 µg/mL
TD50 (MT4 cells): > 100 µg/mL

poly{imino[2,2'-disulfo(1,1'-biphenyl)-4,4'-diyl]iminocarbonyl-1,4-phenylenecarbonyl}, alpha-{[(4-methylphenyl)amino]carbonyl}-omega-[(4-methylphenyl)amino]- [Example 8A]
P24 (GB8 virus in JM cells; Table II, 1 μg/mL): 4.3 × 10^4 units/mL
SYNCYTIA (2 DAYS) MEAN (GB8 virus in JM cells; Table II, 1 μg/mL): 3
SYNCYTIA % (GB8 virus in JM cells; Table II, 1 μg/mL): 7%
P24 % (GB8 virus in JM cells; Table II, 1 μg/mL): 12%
P24 (GB8 virus in JM cells; Table II, 3 μg/mL): 4.4 × 10^4 units/mL
SYNCYTIA (2 DAYS) MEAN (GB8 virus in JM cells; Table II, 3 μg/mL): 0
SYNCYTIA % (GB8 virus in JM cells; Table II, 3 μg/mL): 0%
P24 % (GB8 virus in JM cells; Table II, 3 μg/mL): 12%
SYNCYTIA (2 DAYS) MEAN (GB8 virus in JM cells; Table II, 10 μg/mL): 0
SYNCYTIA % (GB8 virus in JM cells; Table II, 10 μg/mL): 0%
SYNCYTIA (2 DAYS) MEAN (GB8 virus in JM cells; Table II, 30 μg/mL): 0
SYNCYTIA % (GB8 virus in JM cells; Table II, 30 μg/mL): 0%
SYNCYTIA (2 DAYS) MEAN (GB8 virus in JM cells; Table II, 100 μg/mL): 0
SYNCYTIA % (GB8 virus in JM cells; Table II, 100 μg/mL): 0%
P24 (GB8 virus in JM cells; Table III, 5 μg/mL): 268599 pg/mL
SYNCYTIA MEAN (GB8 virus in JM cells; Table III, 5 μg/mL): 35
SYNCYTIA % (GB8 virus in JM cells; Table III, 5 μg/mL): 51%
P24 % (GB8 virus in JM cells; Table III, 5 μg/mL): 81%
P24 (GB8 virus in JM cells; Table III, 50 μg/mL): 11600 pg/mL
SYNCYTIA MEAN (GB8 virus in JM cells; Table III, 50 μg/mL): 0
P24 % (GB8 virus in JM cells; Table III, 50 μg/mL): 3.5%
SYNCYTIA MEAN (GB8 virus in JM cells; Table III, 500 μg/mL): 0
ED50 (HIV strain RF): 1.5 µg/mL
TD50 (MT4 cells): > 100 µg/mL

poly{imino[2,2'-disulfo(1,1'-biphenyl)-4,4'-diyl]iminocarbonyl}, alpha-{[(4-methylphenyl)amino]carbonyl}-omega[(4-methylphenyl)amino]- [Example 1B]
P24 (HIV-I, GB8; 0.6 μg/mL): 32820 pg/mL
P24 % CONTROL (HIV-I, GB8; 0.6 μg/mL): 0.1%
P24 (HIV-I, GB8; 1.25 μg/mL): 35890 pg/mL
P24 % CONTROL (HIV-I, GB8; 1.25 μg/mL): < 0.1%
P24 (HIV-I, GB8; 2.5 μg/mL): 365 pg/mL
P24 % CONTROL (HIV-I, GB8; 2.5 μg/mL): < 0.1%
SYNCYTIA (HIV-I, GB8; 2.5 μg/mL): 0
P24 (HIV-I, GB8; 5.0 μg/mL): 465 pg/mL
P24 % CONTROL (HIV-I, GB8; 5.0 μg/mL): < 0.1%
SYNCYTIA (HIV-I, GB8; 5.0 μg/mL): 0
P24 (HIV-I (GB8)): 2790 pg/mL
MEAN SYNCYTIA (HIV-I (GB8)): 52
P24 % (HIV-I (GB8)): 10%
SYNCYTIA % (HIV-I (GB8)): 44%
SYNCYTIA (2 DAYS) MEAN (GB8 virus in JM cells; Table II, 0.01 μg/mL): 47
SYNCYTIA % (GB8 virus in JM cells; Table II, 0.01 μg/mL): 112%
P24 (GB8 virus in JM cells; Table II, 0.03 μg/mL): 4.1 × 10^5 units/mL
SYNCYTIA (2 DAYS) MEAN (GB8 virus in JM cells; Table II, 0.03 μg/mL): 42
SYNCYTIA % (GB8 virus in JM cells; Table II, 0.03 μg/mL): 100%
P24 % (GB8 virus in JM cells; Table II, 0.03 μg/mL): 100%
P24 (GB8 virus in JM cells; Table II, 0.1 μg/mL): 4.4 × 10^5 units/mL
SYNCYTIA (2 DAYS) MEAN (GB8 virus in JM cells; Table II, 0.1 μg/mL): 25
SYNCYTIA % (GB8 virus in JM cells; Table II, 0.1 μg/mL): 58%
P24 % (GB8 virus in JM cells; Table II, 0.1 μg/mL): 100%
P24 (GB8 virus in JM cells; Table II, 0.3 μg/mL): 3.8 × 10^4 units/mL
SYNCYTIA (2 DAYS) MEAN (GB8 virus in JM cells; Table II, 0.3 μg/mL): 1
SYNCYTIA % (GB8 virus in JM cells; Table II, 0.3 μg/mL): 2%
P24 % (GB8 virus in JM cells; Table II, 0.3 μg/mL): 11%
P24 (GB8 virus in JM cells; Table II, 1 μg/mL): 1.6 × 10^3 units/mL
SYNCYTIA (2 DAYS) MEAN (GB8 virus in JM cells; Table II, 1 μg/mL): 0
SYNCYTIA % (GB8 virus in JM cells; Table II, 1 μg/mL): 0%
P24 % (GB8 virus in JM cells; Table II, 1 μg/mL): 0.4%
SYNCYTIA (2 DAYS) MEAN (GB8 virus in JM cells; Table II, 3 μg/mL): 0
SYNCYTIA % (GB8 virus in JM cells; Table II, 3 μg/mL): 0%
SYNCYTIA (2 DAYS) MEAN (GB8 virus in JM cells; Table II, 10 μg/mL): 0
SYNCYTIA % (GB8 virus in JM cells; Table II, 10 μg/mL): 0%
ED50 (HIV strain RF): 2.2 µg/mL
TD50 (MT4 cells): > 100 µg/mL
